Results: patent US6310273A, “Inhibiting apoptosis in plants using a baculovirus p35 protease inhibitor gene” (The Regents of the University of California, priority 1999, dated 2001)
Peptide text beside a SMILES is read from it.

Tests used:
[1] = system: Pseudomonas syringae pv. tomato in tomato leaves; experiment: Leaf infiltration of bacteria with peptide inhibitor, cell death; type: in vivo; details: compatible interaction; inhibitor syringe-infiltrated with bacteria into leaf
Description: (§1) A leaf of the susceptible plant of interest is syringe or vacuum infiltrated with a concentration of virulent bacteria sufficient to cause disease and tissue death. A portion of the same leaf or another leaf on the same plant of similar position and age is infiltrated with bacteria and the tetrapeptide inhibitor. Usually a 0.5 mM concentration of inhibitor is sufficient to inhibit disease but may vary according to pathogen and host plant. Disease is permitted to develop under conditions suitable for the plant/pathogen combination. Symptoms are viewed over the course of the experiment to assess the level of symptom (death) inhibition by the caspase inhibitor compared to the control. The affect of the caspase inhibitor on bacterial growth can be assayed by taking samples of the tissue and performing growth curves of the pathogen as described in the literature.
(§2) Host plant leaves are infiltrated with bacteria at a suitable concentration (10^4 -10^8 colony forming units per ml) to cause disease. Leaves of the same age and position on the same or a different plant are infiltrated with bacteria of the same concentration with the desired peptide inhibitor added. All solutions are infiltrated directly into the plant leaf lamina with a syringe. Disease symptoms in the form of dead areas of cells are quantified by time lapse color image capture and lesion area measurements determined by digital image analysis. Samples of the control tissue and inhibitor treated tissues are analyzed on a time course basis for bacterial growth rate.
(§3) Pathogen growth is measured by grinding leaf disc samples in a suitable buffer followed by serial dilutions and plating of samples onto agar plates to determine the relative number of colonies produced. Colony counts are then related back to the original undiluted samples. Growth values are reported as means of several samples with appropriate statistical measures of mean separation. Differential effects of the inhibitors thus are measured both in terms of the amount of apoptotic cell death induced (symptoms) and by the effect of altering cell death induction on the amount of pathogen growth in the tissue.

[2] = system: Pseudomonas syringae pv. tabaci in tobacco leaves; experiment: as above; type: in vivo; details: compatible interaction; inhibitor syringe-infiltrated with bacteria into leaf
Description: as §1, §2, §3

[3] = system: Pseudomonas syringae pv. phaseolicola in tobacco leaves; experiment: as above; type: in vivo; details: incompatible interaction (non-host hypersensitive response); inhibitor syringe-infiltrated with bacteria into leaf
[4] = system: bean; experiment: Blocking of apoptotic death or disease in bean; type: in vivo
[5] = system: tobacco; experiment: Blocking of apoptotic death or disease in tobacco; type: in vivo
[6] = system: Pseudomonas syringae pv. tomato (avrPto) in tomato (Pto/Pto) leaves; experiment: Leaf infiltration of bacteria with peptide inhibitor, cell death; type: in vivo; details: incompatible interaction (host specific gene for gene hypersensitive response); inhibitor syringe-infiltrated with bacteria into leaf
[7] = molecular target: T1, caspase-3 (CPP32, apopain, Yama) (Homo sapiens, UniProt P42574); details: 0.1 uM inhibitor; 100 ul reaction, 30 units caspase-3, 0.2 mM DEVD-p-nitroanilide; cited from earlier work
T1 construct: purchased BIOMOL Research Laboratories, Inc. AK-700
T1 sequence (P42574 29-175 limits assumed): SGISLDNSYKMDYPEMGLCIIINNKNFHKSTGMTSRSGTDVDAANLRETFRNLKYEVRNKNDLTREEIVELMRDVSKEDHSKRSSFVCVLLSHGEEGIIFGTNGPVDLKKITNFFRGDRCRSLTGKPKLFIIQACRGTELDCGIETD
T1 sequence (P42574 176-277 limits assumed): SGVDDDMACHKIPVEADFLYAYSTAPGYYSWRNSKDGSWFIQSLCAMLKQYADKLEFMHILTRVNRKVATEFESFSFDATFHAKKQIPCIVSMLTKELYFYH

[8] = system: Xanthamonas campestris pv tomato in tomato leaves; experiment: Leaf infiltration of bacteria with peptide inhibitor, cell death; type: in vivo; details: compatible interaction; inhibitor syringe-infiltrated with bacteria into leaf
Description: as §1, §2, §3

[9] = system: Pseudomonas syringae pv. syringae in tomato leaves; experiment: as above; type: in vivo; details: compatible interaction; inhibitor syringe-infiltrated with bacteria into leaf
Description: as §1, §2, §3

[10] = system: Pseudomonas syringae pv. phaseolicola in bean leaves; experiment: as above; type: in vivo; details: compatible interaction; inhibitor syringe-infiltrated with bacteria into leaf
Description: as §1, §2, §3

[11] = system: Pseudomonas syringae pv. angulata in tobacco leaves; experiment: as above; type: in vivo; details: compatible interaction; inhibitor syringe-infiltrated with bacteria into leaf
Description: as §1, §2, §3

For CC(=O)N[C@@H](Cc1ccc(O)cc1)C(=O)N[C@H](C(=O)N[C@@H](C)C(=O)N[C@H](C=O)CC(=O)O)C(C)C [Ac-YVAD-CHO], which “blocking of cell death” value [1] is on record?
Its value is “blocks cell death but less well than others”.

And the “blocking of cell death” value [2]?
Its value is “blocks cell death but less well than others”.

And the “blocking of cell death” value [3]?
Its value is “blocks cell death but less well than others”.

What does the source list for CC(=O)N[C@@H](CC(C)C)C(=O)N[C@@H](CC(C)C)C(=O)N[C@H](C=O)CCCNC(=N)N [leupeptin]?
blocking apoptotic death or disease [4]: not effective; blocking apoptotic death or disease [5]: not effective

With Ac-Leu-Arg-Arg-aldehyde as the compound, how does the “blocking of cell death” value [2] read?
Its value is “does not block cell death”.

For Ac-DQMD-aldehyde, which “blocking of cell death” value [6] is on record?
The value was “blocks cell death”.

What does the source list for CC(=O)N[C@@H](CC(=O)O)C(=O)N[C@@H](CCC(=O)O)C(=O)N[C@H](C(=O)N[C@H](C=O)CC(=O)O)C(C)C [Ac-DEVD-CHO]?
blocking of caspase-3 activity [7]: completely blocked; blocking of cell death [8]: blocks cell death; blocking of cell death [1]: blocks cell death; blocking of cell death [2]: blocks cell death; blocking of cell death [9]: blocks cell death; blocking of cell death [10]: blocks cell death; blocking of cell death [11]: blocks cell death; blocking of cell death [3]: blocks cell death; blocking of cell death [6]: blocks cell death

What does the source list for CSCC[C@H](NC(=O)[C@H](CC(=O)O)NC(C)=O)C(=O)N[C@@H](CCC(N)=O)C(=O)N[C@H](C=O)CC(=O)O [Ac-DMQD-CHO] (Ac-DMQD-aldehyde)?
blocking of cell death [1]: blocks cell death; blocking of cell death [2]: blocks cell death; blocking of cell death [3]: blocks cell death
